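Values below derive from 48-hour exposures of cells grown in 96-well plates, with endpoints linearly interpolated between the two concentrations bracketing the appropriate inhibition level. GI50: concentration for 50% inhibition of growth.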 Calls of active or inactive are those of the source. No stated cut-off is given here; in the data, active = GI50 up to about 1.1 µM and inactive = higher.
Columns and labels:
Test in all cases: NCI tumour cell line growth inhibition, 48 h
CAKI-1 = tested on: CAKI-1
RXF 393 = tested on: RXF 393
K562 = tested on: K562
KM12 = tested on: KM12
HT-29 = tested on: HT-29
HCC 2998 = tested on: HCC 2998
EKVX = tested on: EKVX
SN12C = tested on: SN12C
IGROV-1 = tested on: IGROV-1
OVCAR-5 = tested on: OVCAR-5
NCI/ADR-RES = tested on: NCI/ADR-RES
SK-MEL-2 = tested on: SK-MEL-2
SF-268 = tested on: SF-268
DMS-273 = tested on: DMS-273
KM-20L2 = tested on: KM-20L2
M19-MEL = tested on: M19-MEL
SK-MEL-28 = tested on: SK-MEL-28
XF498 = tested on: XF498
SNB-78 = tested on: SNB-78
UO-31 = tested on: UO-31

| Compound | GI50 (CAKI-1) | GI50 (RXF 393) | GI50 (K562) | GI50 (KM12) | GI50 (HT-29) | GI50 (HCC 2998) | GI50 (EKVX) | GI50 (SN12C) | GI50 (IGROV-1) | GI50 (OVCAR-5) | GI50 (NCI/ADR-RES) | GI50 (SK-MEL-2) | GI50 (SF-268) | GI50 (DMS-273) | GI50 (KM-20L2) | GI50 (M19-MEL) | GI50 (SK-MEL-28) | GI50 (XF498) | GI50 (SNB-78) | GI50 (UO-31) |
| --- | --- | --- | --- | --- | --- | --- | --- | --- | --- | --- | --- | --- | --- | --- | --- | --- | --- | --- | --- | --- |
| COc1cc(CCN(C)C)cc(OC)c1OC | > 100 µM (inactive) | > 100 µM (inactive) | > 100 µM (inactive) | > 100 µM (inactive) | > 100 µM (inactive) | > 100 µM (inactive) | > 100 µM (inactive) | > 100 µM (inactive) | > 100 µM (inactive) | > 100 µM (inactive) | > 100 µM (inactive) | > 100 µM (inactive) | > 100 µM (inactive) |  |  |  |  |  |  |  |
| CCCCCCCCCCCCCCCCCC(=O)OCC1OC(OC)C(NC(=O)N(CCCl)N=O)C(O)C1O (stereo not drawn) | > 100 µM (inactive) | 17 µM (inactive) | 24.6 µM (inactive) | 24.8 µM (inactive) | 20.9 µM (inactive) | 29 µM (inactive) |  | 11.4 µM (inactive) | 32.5 µM (inactive) | 44.2 µM (inactive) |  | 45.9 µM (inactive) | 8.3 µM (inactive) | 16 µM (inactive) | > 10 µM (inactive) | 71.4 µM (inactive) | 21.6 µM (inactive) | 20.7 µM (inactive) | 40.4 µM (inactive) | 24.3 µM (inactive) |
| COc1cc(/C=C(\C#N)C(N)=O)cc(Br)c1O | > 100 µM (inactive) | > 100 µM (inactive) |  | > 100 µM (inactive) | > 100 µM (inactive) | > 100 µM (inactive) |  |  | > 100 µM (inactive) | > 100 µM (inactive) | > 100 µM (inactive) | > 100 µM (inactive) | > 100 µM (inactive) | > 100 µM (inactive) | > 100 µM (inactive) | > 100 µM (inactive) | > 100 µM (inactive) | 23.2 µM (inactive) | > 100 µM (inactive) | 96.6 µM (inactive) |
| CCOC(=O)C(C)NC(=O)N(C)C12CC3CC(CC(C3)C1)C2 (stereo not drawn) | 231 µM (inactive) | 153 µM (inactive) | 169 µM (inactive) | 179 µM (inactive) | 281 µM (inactive) | 268 µM (inactive) | 450 µM (inactive) | 385 µM (inactive) | 286 µM (inactive) | > 500 µM (inactive) | 151 µM (inactive) | 169 µM (inactive) | 319 µM (inactive) | 209 µM (inactive) | 199 µM (inactive) | 177 µM (inactive) | 317 µM (inactive) | 192 µM (inactive) | 277 µM (inactive) | 175 µM (inactive) |
| CCOC(=O)C1=C(c2ccccc2)C12N(Cc1ccccc1)C(=O)C2(c1ccccc1)c1ccccc1 (stereo not drawn) |  | 28.3 µM (inactive) | 16.5 µM (inactive) | 29.4 µM (inactive) | 43.2 µM (inactive) | 28.1 µM (inactive) | 38.8 µM (inactive) | 57.8 µM (inactive) | 56.1 µM (inactive) | 59.8 µM (inactive) |  | 24 µM (inactive) | > 100 µM (inactive) |  |  |  | 74.3 µM (inactive) |  |  | 28.8 µM (inactive) |
| CC1(CO)C(O)CCC2(C)C1CCC1CC3CC12CCC3(O)CO (stereo not drawn) | 3.15 µM (inactive) | 20 µM (inactive) | 14 µM (inactive) | > 100 µM (inactive) | 6.5 µM (inactive) | 12.1 µM (inactive) | > 64.6 µM (inactive) | 16.7 µM (inactive) | > 100 µM (inactive) | > 36.9 µM (inactive) | 6.67 µM (inactive) | > 100 µM (inactive) | 8.36 µM (inactive) | 0.44 µM (active) |  | 26.2 µM (inactive) | > 100 µM (inactive) | 64.7 µM (inactive) | > 100 µM (inactive) | 25.3 µM (inactive) |
| O=C1C=CC[C@H]2O[C@@H](COC(=O)Cc3ccccc3)C[C@H]2O1 | 38.5 µM (inactive) |  | 55.6 µM (inactive) | 18.2 µM (inactive) | 25.5 µM (inactive) |  | 29.5 µM (inactive) | 66.1 µM (inactive) | 20 µM (inactive) | 42.6 µM (inactive) | 38 µM (inactive) | 51.5 µM (inactive) | 25 µM (inactive) |  |  |  | 21.9 µM (inactive) |  |  | 32 µM (inactive) |
| [O-][Cl+3]([O-])([O-])O.c1ccc(C2=NN2c2ccccc2)cc1 | > 100 µM (inactive) | > 100 µM (inactive) | 2.32 µM (inactive) | 7.41 µM (inactive) | 29.3 µM (inactive) | 6.28 µM (inactive) | 92.7 µM (inactive) | > 100 µM (inactive) | 34 µM (inactive) | > 100 µM (inactive) | > 100 µM (inactive) | > 100 µM (inactive) | 21.8 µM (inactive) |  |  |  | > 100 µM (inactive) |  |  | 15.9 µM (inactive) |
